Results: US6812212B2, “Assessment of oxidant stress in vitro and in vivo” (priority 2000, dated 2004)

What was measured:
[1] = test system: cytochrome c; assay: Nitration and polymerization of cytochrome c by NO donor during prostaglandin H2 synthase form 2 metabolism of arachidonic acid; assay type: biochemical; settings: 300 μM DETA NONOate with ovine PGHS-2 and arachidonic acid (590 μM), 37° C., 30 minutes
Protocol: Western blot analysis was carried out with monoclonal antibodies produced against nitrotyrosine using the alkaline phosphatase system;
Reaction mixture in 100 mM phosphate buffer, pH 7.4, (total volume, 200 μl) was incubated at 37° C. for 30 minutes. The reaction mixture contained a combination of cytochrome c (40 μg), ovine prostaglandin H2 synthase form 2 (104 units), arachidonic acid (590 μM), epinephrine (31 μg), hematin (1 μM), and DETA NONOate, an NO donor, (300 μM) as indicated in FIG. 2. After incubation, the proteins were separated by SDS-PAGE followed by Western blot analysis with an alkaline phosphatase system using monoclonal antibodies produced against nitrotyrosine.

[2] = target: T1, prostaglandin H2 synthase form 2 (Ovis aries, UniProt P79208); assay: Peroxynitrite-induced nitration of prostaglandin H2 synthase form 2, Western blot with anti-nitrotyrosine antibodies; assay type: biochemical, sheep; settings: for nitration of tyrosine residues of prostaglandin H2 synthase form 2 in the presence of reducing agent: 16 μg sheep PGHS-2, 450 μM peroxynitrite, 31 μM GSH
T1 construct: Prostaglandin H2 synthase form 2, isolated from sheep placenta, contained nitrated tyrosine residues; purchased Cayman Co. (Ann Arbor, Mich.); host or cells: sheep placenta (tissue-purified)
T1 sequence (P79208 17-603): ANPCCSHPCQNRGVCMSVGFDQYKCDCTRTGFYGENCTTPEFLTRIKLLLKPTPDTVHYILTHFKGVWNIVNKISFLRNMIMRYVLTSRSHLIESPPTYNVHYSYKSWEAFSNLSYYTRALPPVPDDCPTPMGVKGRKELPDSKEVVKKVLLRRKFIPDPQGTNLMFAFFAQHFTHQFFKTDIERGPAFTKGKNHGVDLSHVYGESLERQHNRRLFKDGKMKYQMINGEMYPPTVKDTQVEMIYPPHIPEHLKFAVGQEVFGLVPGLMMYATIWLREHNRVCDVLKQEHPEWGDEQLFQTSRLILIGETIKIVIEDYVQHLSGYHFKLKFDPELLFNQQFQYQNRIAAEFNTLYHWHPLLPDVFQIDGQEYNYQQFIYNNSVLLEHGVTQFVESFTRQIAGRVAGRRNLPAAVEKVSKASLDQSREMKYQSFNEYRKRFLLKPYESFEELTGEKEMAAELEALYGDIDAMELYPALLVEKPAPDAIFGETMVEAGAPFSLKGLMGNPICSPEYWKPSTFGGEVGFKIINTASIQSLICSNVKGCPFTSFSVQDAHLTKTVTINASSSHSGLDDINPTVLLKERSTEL
Protocol: (§1) SDS-PAGE was carried out on 10% or 15% gels, according to Laemmli (18), with or without the addition of β-mercaptoethanol in gel loading buffer before heat denaturization of proteins. The separated proteins were electroblotted onto a […] membrane and Western blot analyses were carried out using alkaline phosphatase system as previously described (19,20). Visualization of bands was accomplished by incubation with a mixture of 5-bromo-4-chloro-3-indolylphosphatate p-toluidine and nitrobluetetrazolium. Western blot analyses were also carried out using horseradish peroxidase or alkaline phosphatase system with […] substrates.

[3] = target: T1, prostaglandin H2 synthase form 2; assay: Peroxynitrite-induced dimerization of prostaglandin H2 synthase form 2, SDS-PAGE without β-mercaptoethanol and Western blot; assay type: biochemical, sheep; settings: 450 μM peroxynitrite
Protocol: as §1

[4] = target: T2, prostaglandin H2 synthase form 1 (Ovis aries, UniProt P05979); assay: Prostaglandin H2 synthase activity analysis by TLC ([14C]arachidonic acid conversion); assay type: biochemical, sheep; settings: pretreated at 37° C. for 30 minutes; 25 μM [14C]arachidonic acid
T2 construct: sheep prostaglandin H2 synthases form 1 and 2 obtained from ram seminal vesicle and placenta, respectively; purchased Cayman Co. (Ann Arbor, Mich.); host or cells: ram seminal vesicle (tissue-purified)
T2 sequence (P05979 25-600): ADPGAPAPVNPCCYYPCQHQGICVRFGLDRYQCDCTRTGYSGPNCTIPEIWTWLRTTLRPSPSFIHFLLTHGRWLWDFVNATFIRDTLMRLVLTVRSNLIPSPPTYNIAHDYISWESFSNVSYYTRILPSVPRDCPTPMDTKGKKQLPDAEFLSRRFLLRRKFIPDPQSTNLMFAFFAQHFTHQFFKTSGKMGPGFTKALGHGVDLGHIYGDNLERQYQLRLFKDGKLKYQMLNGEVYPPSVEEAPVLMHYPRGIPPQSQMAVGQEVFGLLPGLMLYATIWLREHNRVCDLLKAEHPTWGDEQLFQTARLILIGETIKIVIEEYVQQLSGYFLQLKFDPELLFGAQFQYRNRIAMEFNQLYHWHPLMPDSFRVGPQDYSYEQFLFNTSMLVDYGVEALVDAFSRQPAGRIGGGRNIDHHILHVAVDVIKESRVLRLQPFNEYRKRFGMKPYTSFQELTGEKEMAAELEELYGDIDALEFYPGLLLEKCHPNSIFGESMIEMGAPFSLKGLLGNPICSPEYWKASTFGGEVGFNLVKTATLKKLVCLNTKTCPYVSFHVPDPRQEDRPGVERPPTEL
Protocol: (§2) Prostaglandin H2 synthase activity analysis of sheep prostaglandin H2 synthases form 1 and 2 obtained from ram seminal vesicle and placenta, respectively, were carried out as previously described (21) with or without pretreatment with peroxynitrite. Briefly, purified or partly purified sheep prostaglandin H2 synthases form 1 (9 units) and form 2 (12 units) were pretreated with or without peroxynitrite at 37° C. for 30 minutes. [^14C]arachidonic acid (AA) (25 μM) (NEN, specific activity 53 mCi/mmol) was added to the prostaglandin H2 synthase form 1 or form 2 in 0.2 ml of PBS, and incubated at 37° C. for 10 minutes. Prostaglandin H2 synthase metabolites in the medium were extracted with ethyl acetate, dried down in a centrifugal evaporator, spotted on a silica TLC plate and separated using A-9 solvent (ethyl acetate:trimethylpentane:acetic acid:water, 55:25:10:50). The TLC assay measured products resulting from both the cyclooxygenase and peroxidase activities of prostaglandin H2 synthase. The immediate product of the prostaglandin H2 synthase reaction, prostaglandin H2, was unstable and broke down in a non-enzymatic fashion to a variety of prostaglandins which were detectable by TLC. The Rf pattern in the A-9 solvent system of the break down products of prostaglandin H2 produced by ram seminal vesicle prostaglandin H2 synthase form 1 was well characterized. […]

[5] = target: T1, prostaglandin H2 synthase form 2; assay: as above; assay type: biochemical, sheep; settings: pretreated at 37° C. for 30 minutes; 25 μM [14C]arachidonic acid
Protocol: as §2

[6] = test system: cytochrome c; assay: Nitration and polymerization of cytochrome c, SDS-PAGE and anti-nitrotyrosine Western blot; assay type: biochemical
Protocol: as §1
Cytochrome c (40 μg) was incubated with 0.5 mM (FIG. 1, Panel A, lane 1) […] deactivated (a negative control, FIG. 1, Panel A, lane 2) peroxynitrite in 100 mM phosphate buffer, pH 7.4. Deactivated peroxynitrite was produced by incubation of 0.5 mM peroxynitrite in buffer for 5 minutes prior to addition to the reaction mixture. […]
Cytochrome c (40 μg) was incubated with increasing concentrations (0.032 to 0.13 mM) (FIG. 1, Panel B) of peroxynitrite in 100 mM phosphate buffer, pH 7.4. […] The cytochrome c monomer band (14 kDa) shown in Western blot analysis in FIG. 1, Panel B and those obtained from two other experiments were quantitated using Molecular Dynamics Personal Densitometer (FIG. 1, Panel C).

NCCN(CCN)/[N+]([O-])=N/O [DETA NONOate, diethylenetetraamine (DETA) NONOate]
nitration and polymerization of cytochrome c [1]: nitrated and polymerized

N[C@@H](CCC(=O)N[C@@H](CS)C(=O)NCC(=O)O)C(=O)O [glutathione]
nitration of tyrosine residues of prostaglandin H2 synthase form 2 in the presence of reducing agent [2]: inhibited
nitration of tyrosine residues of prostaglandin H2 synthase form 2 in the presence of reducing agent ([2]; listed as GSH): not nitrated
dimerization of prostaglandin H2 synthase form 2 in the presence of reducing agent ([3]; 31 μM GSH, no β-mercaptoethanol in loading buffer): ran as a monomer

O=NOO [peroxynitrite]
nitration of tyrosine residues of prostaglandin H2 synthase form 2 by oxidant ([2]; 450 μM peroxynitrite, no GSH): increased
dimerization of prostaglandin H2 synthase form 2 by oxidant ([3]; no GSH, no β-mercaptoethanol): migrated both as a monomer (70 kDa) and a dimer (140 kDa)
catalytic activity of prostaglandin H2 synthase form 1 after treatment [4]: abolished
catalytic activity of prostaglandin H2 synthase form 2 after treatment [5]: abolished
nitration and polymerization of cytochrome c ([6]; 0.5 mM peroxynitrite, 100 mM phosphate buffer, pH 7.4): nitrated and polymerized to 30 kDa, 45 kDa and higher molecular mass
concentration dependence of nitration and polymerization of cytochrome c ([6]; 0.032 to 0.13 mM peroxynitrite): nitrated and polymerized in a dose-dependent manner
